Source: PubChem BioAssay (NCI)
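Results reflect a 48-hour exposure of cells in 96-well plates to compound at five concentrations. At the GI50, growth is halved. TGI is the concentration that stops growth completely.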

Key:
Test in all cases: inhibition of tumour cell growth, NCI panel, 48 h
786-0 renal = system: 786-0 renal
A498 renal = system: A498 renal
A549 NSCLC = system: A549 NSCLC
ACHN renal = system: ACHN renal
BT-549 breast = system: BT-549 breast
CAKI-1 renal = system: CAKI-1 renal
CCRF-CEM leukemia = system: CCRF-CEM leukemia
COLO 205 colon = system: COLO 205 colon
DU-145 prostate = system: DU-145 prostate
EKVX NSCLC = system: EKVX NSCLC
HCC-2998 colon = system: HCC-2998 colon
HCT-116 colon = system: HCT-116 colon
HCT-15 colon = system: HCT-15 colon
HL-60(TB) leukemia = system: HL-60(TB) leukemia
HOP-62 NSCLC = system: HOP-62 NSCLC
HS 578T breast = system: HS 578T breast
HT29 colon = system: HT29 colon
IGROV1 ovarian = system: IGROV1 ovarian
K-562 leukemia = system: K-562 leukemia
KM12 colon = system: KM12 colon
LOX IMVI melanoma = system: LOX IMVI melanoma
M14 melanoma = system: M14 melanoma
MALME-3M melanoma = system: MALME-3M melanoma
MCF7 breast = system: MCF7 breast
MDA-MB-231 breast = system: MDA-MB-231 breast
MDA-MB-435 = system: MDA-MB-435
MOLT-4 leukemia = system: MOLT-4 leukemia
NCI-H226 lung = system: NCI-H226 lung
NCI-H23 lung = system: NCI-H23 lung
NCI-H460 lung = system: NCI-H460 lung
NCI-H522 lung = system: NCI-H522 lung
NCI/ADR-RES ovarian = system: NCI/ADR-RES ovarian
OVCAR-3 ovarian = system: OVCAR-3 ovarian
OVCAR-4 ovarian = system: OVCAR-4 ovarian
OVCAR-5 ovarian = system: OVCAR-5 ovarian
OVCAR-8 ovarian = system: OVCAR-8 ovarian
PC-3 prostate = system: PC-3 prostate
RXF 393 renal = system: RXF 393 renal
SF-268 CNS = system: SF-268 CNS
SF-295 CNS = system: SF-295 CNS
SF-539 CNS = system: SF-539 CNS
SK-MEL-2 melanoma = system: SK-MEL-2 melanoma
SK-MEL-28 melanoma = system: SK-MEL-28 melanoma
SK-MEL-5 melanoma = system: SK-MEL-5 melanoma
SN12C renal = system: SN12C renal
SNB-19 CNS = system: SNB-19 CNS
SNB-75 CNS = system: SNB-75 CNS
SR leukemia = system: SR leukemia
SW-620 colon = system: SW-620 colon
T-47D breast = system: T-47D breast
TK-10 renal = system: TK-10 renal
U251 CNS = system: U251 CNS
UACC-257 melanoma = system: UACC-257 melanoma
UACC-62 melanoma = system: UACC-62 melanoma
UO-31 renal = system: UO-31 renal
HOP-92 NSCLC = system: HOP-92 NSCLC
SK-OV-3 ovarian = system: SK-OV-3 ovarian

## C=C(C)[C@@H]1C/C=C(/CO)CC[C@H]2O[C@]2(C)CC/C=C(\C)CC1
786-0 renal
  GI50: 15.4 µM
  TGI: 34.2 µM
A498 renal
  GI50: 10.4 µM
  TGI: 24.3 µM
A549 NSCLC
  GI50: 16.1 µM
  TGI: 50.3 µM
ACHN renal
  GI50: 29.5 µM
  TGI: > 100 µM
BT-549 breast
  GI50: 17.5 µM
  TGI: 34.7 µM
CAKI-1 renal
  GI50: 17.1 µM
  TGI: 34.8 µM
CCRF-CEM leukemia
  GI50: 12.5 µM
  TGI: 34.8 µM
COLO 205 colon
  GI50: 13.2 µM
  TGI: 26.7 µM
DU-145 prostate
  GI50: 18.1 µM
  TGI: 60.5 µM
EKVX NSCLC
  GI50: 12.9 µM
  TGI: 36 µM
HCC-2998 colon
  GI50: 19.8 µM
  TGI: 40.4 µM
HCT-116 colon
  GI50: 19.3 µM
  TGI: 38.3 µM
HCT-15 colon
  GI50: 23.6 µM
  TGI: 51.7 µM
HL-60(TB) leukemia
  GI50: 8.12 µM
  TGI: 24 µM
HOP-62 NSCLC
  GI50: 15 µM
  TGI: 34.4 µM
HS 578T breast
  GI50: 18.2 µM
  TGI: 38.7 µM
HT29 colon
  GI50: 14.5 µM
  TGI: 31.6 µM
IGROV1 ovarian
  GI50: 18.6 µM
  TGI: 41.3 µM
K-562 leukemia
  GI50: 5.73 µM
  TGI: 26.1 µM
KM12 colon
  GI50: 16.1 µM
  TGI: 32.4 µM
LOX IMVI melanoma
  GI50: 15.4 µM
  TGI: 30.3 µM
M14 melanoma
  GI50: 15 µM
  TGI: 29.9 µM
MALME-3M melanoma
  GI50: 12.9 µM
  TGI: 28.5 µM
MCF7 breast
  GI50: 15.7 µM
  TGI: 31.8 µM
MDA-MB-231 breast
  GI50: 10.7 µM
  TGI: 29.7 µM
MDA-MB-435
  GI50: 13.5 µM
  TGI: 29.2 µM
MOLT-4 leukemia
  GI50: 12.7 µM
  TGI: 32 µM
NCI-H226 lung
  GI50: 19.7 µM
  TGI: 43.7 µM
NCI-H23 lung
  GI50: 20.7 µM
  TGI: 66.9 µM
NCI-H460 lung
  GI50: 11.5 µM
  TGI: 27 µM
NCI-H522 lung
  GI50: 16.1 µM
  TGI: 32.1 µM
NCI/ADR-RES ovarian
  GI50: 29.9 µM
  TGI: > 100 µM
OVCAR-3 ovarian
  GI50: 22.2 µM
  TGI: 42.9 µM
OVCAR-4 ovarian
  GI50: 16.3 µM
  TGI: 34.1 µM
OVCAR-5 ovarian
  GI50: 24.7 µM
  TGI: > 100 µM
OVCAR-8 ovarian
  GI50: 24 µM
  TGI: 58.4 µM
PC-3 prostate
  GI50: 11.8 µM
  TGI: 30.9 µM
RXF 393 renal
  GI50: 18.3 µM
  TGI: 33.4 µM
SF-268 CNS
  GI50: 19.9 µM
  TGI: 38.2 µM
SF-295 CNS
  GI50: 11.6 µM
  TGI: 24.5 µM
SF-539 CNS
  GI50: 18 µM
  TGI: 33.7 µM
SK-MEL-2 melanoma
  GI50: 15.3 µM
  TGI: 31.3 µM
SK-MEL-28 melanoma
  GI50: 14.3 µM
  TGI: 32.1 µM
SK-MEL-5 melanoma
  GI50: 12.7 µM
  TGI: 25.5 µM
SN12C renal
  GI50: 14.6 µM
  TGI: 29 µM
SNB-19 CNS
  GI50: 18 µM
  TGI: 33.8 µM
SNB-75 CNS
  GI50: 12.1 µM
  TGI: 31.3 µM
SR leukemia
  GI50: 17.2 µM
  TGI: 38.6 µM
SW-620 colon
  GI50: 26.3 µM
  TGI: 61.5 µM
T-47D breast
  GI50: 17.4 µM
  TGI: 47.8 µM
TK-10 renal
  GI50: 9.74 µM
  TGI: 32.8 µM
U251 CNS
  GI50: 19.9 µM
  TGI: 36.2 µM
UACC-257 melanoma
  GI50: 22 µM
  TGI: 43.6 µM
UACC-62 melanoma
  GI50: 15.1 µM
  TGI: 35.6 µM
UO-31 renal
  GI50: 13.6 µM
  TGI: 29.9 µM

## O=C(Nc1ccc2ncnc(Nc3ccc(Oc4cccc(F)c4)c(Cl)c3)c2c1)c1ccc(CN2CCOCC2)cc1
786-0 renal
  GI50: 1.97 µM
  TGI: 4.33 µM
A498 renal
  GI50: 3.28 µM
  TGI: 65.6 µM
A549 NSCLC
  GI50: 2.35 µM
  TGI: 10.3 µM
ACHN renal
  GI50: 2.26 µM
  TGI: 9.55 µM
BT-549 breast
  GI50: 2.3 µM
  TGI: 7.56 µM
CAKI-1 renal
  GI50: 2.18 µM
  TGI: 10.5 µM
CCRF-CEM leukemia
  GI50: 2.95 µM
  TGI: 20.7 µM
COLO 205 colon
  GI50: 2.56 µM
  TGI: 8.34 µM
DU-145 prostate
  GI50: 3.14 µM
  TGI: 15.8 µM
EKVX NSCLC
  GI50: 1.86 µM
  TGI: 38.2 µM
HCC-2998 colon
  GI50: 3.14 µM
  TGI: 18.6 µM
HCT-116 colon
  GI50: 2.55 µM
  TGI: 8.94 µM
HCT-15 colon
  GI50: 2.49 µM
  TGI: 8.85 µM
HL-60(TB) leukemia
  GI50: 2.69 µM
  TGI: 7.88 µM
HOP-62 NSCLC
  GI50: 2.58 µM
  TGI: 8.47 µM
HOP-92 NSCLC
  GI50: 2.38 µM
  TGI: 15.4 µM
HS 578T breast
  GI50: 1.96 µM
  TGI: 7.04 µM
HT29 colon
  GI50: 2.97 µM
  TGI: 11.7 µM
IGROV1 ovarian
  GI50: 1.4 µM
  TGI: 5.5 µM
K-562 leukemia
  GI50: 2.47 µM
  TGI: 11.7 µM
KM12 colon
  GI50: 2.57 µM
  TGI: 7.66 µM
LOX IMVI melanoma
  GI50: 2.24 µM
  TGI: 5.33 µM
M14 melanoma
  GI50: 2.03 µM
  TGI: 4.68 µM
MALME-3M melanoma
  GI50: 2.01 µM
  TGI: 5.2 µM
MCF7 breast
  GI50: 1.83 µM
  TGI: 5.64 µM
MDA-MB-231 breast
  GI50: 2.68 µM
  TGI: 9.03 µM
MDA-MB-435
  GI50: 2.18 µM
  TGI: 5.39 µM
MOLT-4 leukemia
  GI50: 1.8 µM
  TGI: 4.98 µM
NCI-H226 lung
  GI50: 5.12 µM
  TGI: 33.7 µM
NCI-H23 lung
  GI50: 2.09 µM
  TGI: 5.89 µM
NCI-H460 lung
  GI50: 2.39 µM
  TGI: 6.39 µM
NCI-H522 lung
  GI50: 0.654 µM
  TGI: 4.01 µM
NCI/ADR-RES ovarian
  GI50: 2.33 µM
  TGI: 7.16 µM
OVCAR-3 ovarian
  GI50: 2.16 µM
  TGI: 7 µM
OVCAR-4 ovarian
  GI50: 2.53 µM
  TGI: 8.52 µM
OVCAR-5 ovarian
  GI50: 4.5 µM
  TGI: 23.4 µM
OVCAR-8 ovarian
  GI50: 2.34 µM
  TGI: 7.69 µM
PC-3 prostate
  GI50: 2.24 µM
  TGI: 10.6 µM
RXF 393 renal
  GI50: 2.02 µM
  TGI: 5.83 µM
SF-268 CNS
  GI50: 2.6 µM
  TGI: 18.1 µM
SF-295 CNS
  GI50: 2.66 µM
  TGI: 10.3 µM
SF-539 CNS
  GI50: 2.51 µM
  TGI: 6.99 µM
SK-MEL-2 melanoma
  GI50: 2.27 µM
  TGI: 5.46 µM
SK-MEL-28 melanoma
  GI50: 2.62 µM
  TGI: 9.38 µM
SK-MEL-5 melanoma
  GI50: 1.74 µM
  TGI: 3.25 µM
SK-OV-3 ovarian
  GI50: 1.66 µM
  TGI: > 100 µM
SN12C renal
  GI50: 2.6 µM
  TGI: > 100 µM
SNB-19 CNS
  GI50: 3.53 µM
  TGI: > 100 µM
SNB-75 CNS
  GI50: 1.97 µM
  TGI: 9.22 µM
SW-620 colon
  GI50: 3.21 µM
  TGI: 11.2 µM
T-47D breast
  GI50: 1.09 µM
  TGI: 4.2 µM
TK-10 renal
  GI50: 3.08 µM
  TGI: 13.5 µM
U251 CNS
  GI50: 2.96 µM
  TGI: 17.7 µM
UACC-257 melanoma
  GI50: 2.36 µM
  TGI: 7.1 µM
UACC-62 melanoma
  GI50: 1.78 µM
  TGI: 3.43 µM
UO-31 renal
  GI50: 1.81 µM
  TGI: 8.59 µM
